Here are results for 1 compound from US20100093653A1, “Use of 1,6-Bis [3-(3-carboxymethylphenyl)-4-(2-alpha-D-mannopyranosyl-oxy)-phenyl] hexane for the preparation of cosmetic compositions” (Revotar Biopharmaceuticals AG, priority 2006, published 2010).

The subject of series [1] is skin elasticity of the back. The series is described as follows: Model of hormone induced skin ageing (menopause model, bilateral ovarectomy). As to conditions: microemulsion of example 6 onto the back twice daily for two months after ovary removal; vehicle control animals showed the reduction. The series is classed as in vivo, female hairless mice. The text has this:
By using the microemulsion as described in example 6, the effect of FORM 1 of 1,6-Bis [3-(3-carboxymethylphenyl)-4-(2-α-D-mannopyranosyloxy)-phenyl]hexane (compound of formula (I)) on hormone induced skin ageing is investigated employing a menopause model according to methods known to the skilled person. Five-week old female hairless mice are subjected to bilateral ovarectomy, and used as an animal model of menopause. For two months from immediately after ovary extraction, the formulation containing FORM 1 of compound of formula (I) is applied onto the back twice daily. As a control, the formulation without FORM 1 of compound of formula (I) is applied in a similar protocol (vehicle control). […] Two months after ovary removal, skin elasticity of the back is measured using a Cutometer (COURAGE KHAZAKSA).

A further series concerns porcine skin. Nature of the series: Franz diffusion cell penetration assay using porcine skin. Type of series: in vitro ADME. As to conditions: microemulsion of example 6; 10.4 μl on 1000 μm porcine skin; 8 h; 37° C.; LC/MS. The protocol:
By using the microemulsion as described in example 6, skin penetration studies of FORM 1 of 1,6-Bis [3-(3-carboxymethylphenyl)-4-(2-α-D-mannopyranosyloxy)-phenyl]hexane in employing a Franz diffusion cell penetration assay using porcine skin is performed according to the methods known to the skilled person. Porcine skin samples (6 in total, 2 from each animal, 3 female animals in total), 1000 μm thick, with the stratum corneum facing up are placed onto the lower part of a Franz diffusion cell. The cell is rinsed with medium tempered to 37° C. to prevent the skin from drying out and the system is equilibrated for 30 minutes. 10.4 μl of microemulsion as described in example 6 is applied to the dry upper side of the epidermis using a pipette and the microemulsion is distributed with an inoculation loop. Medium is collected every hour.
After 8 h the experiment is finished. The skin is punched out and the surface of the skin is swabed to removed excess microemulsion. The dry surface is stripped 20 times using Tesafilm. Swabs, strips, medium and skin samples are analysed for content of FORM 1 of 1,6-Bis [3-(3-carboxymethylphenyl)-4-(2-α-D-mannopyranosyloxy)-phenyl]hexane by LC/MS. On average 4% of the applied amount of FORM 1 of 1,6-Bis [3-(3-carboxymethylphenyl)-4-(2-α-D-mannopyranosyloxy)-phenyl]hexane in the microemulsion as described in example 6 penetrates into skin.

Series [2] has as its system photoageing of human skin. The series is described as follows: Protective effect against photoaging of human skin, solar simulated UV radiation, immunohistology of biopsies. Type of series: in vivo. The following applies: microemulsion of example 6, topical before 2 MED UV; buttock skin biopsies 24 hours after exposition; vehicle control skin showed it. An excerpt: By using the microemulsion as described in example 6, the protective effect of FORM 1 of 1,6-Bis [3-(3-carboxymethylphenyl)-4-(2-α-D-mannopyranosyloxy)-phenyl]hexane (compound of formula (I)) against photoageing of human skin is investigated according to methods known to the skilled person. Two areas of buttock skin (each approximately 2×2 cm) of 10 healthy male white volunteers are exposed to erythematogenic doses (2 MED) of solar simulated UV radiation. Before radiation one area is topically treated with the formulation containing FORM 1 of compound of formula (I), the other with the formulation without FORM 1 of compound of formula (I) (vehicle control). 24 hours after exposition, biopsies are taken from both areas and as control from an area that is not exposed to radiation.

In a further series the test system is wrinkles of crow's feet. The series is described as follows: Anti-wrinkle efficacy, crow's feet skin replicas with image analysis. Type of series: in vivo, healthy subjects. As to conditions: microemulsion of example 6, twice a day for 28 days; treated vs untreated crow's feet; all subjects. An excerpt: By using the microemulsion as described in example 6, the anti-wrinkle effect of FORM 1 of 1,6-Bis [3-(3-carboxymethylphenyl)-4-(2-α-D-mannopyranosyloxy)-phenyl]hexane (compound of formula (I)) is investigated according to methods known to the skilled person. 40 healthy subjects aged between 34 and 59 years, comprising 35 women and 5 men are selected. The formulation containing FORM 1 of the compound of formula (I), is applied twice a day, in the morning and in the evening, to one temporal zone of the face (crow's feet) for 28 days. The other zone remains untreated and serves as a control. An impression (skin replicas) is made from the control and treated zone at time 0 and after 28 days of treatment using SILFO impression material (Flexico, England).

The test system of the next series is photoageing. The series is described as follows: Protective effect against photoageing, chronic solar-simulated UV radiation. Type of series: in vivo, hairless mice. The following applies: microemulsion of example 6, topical twice daily during 30 weeks UV-exposure; histology. An excerpt:
By using the microemulsion as described in example 6, the protective effect of FORM 1 of 1,6-Bis [3-(3-carboxymethylphenyl)-4-(2-α-D-mannopyranosyloxy)-phenyl]hexane (compound of formula (I)) against photoageing (hairless mice) is investigated according to methods known to the skilled person. Hairless mice are exposed to chronic solar-simulated UV radiation for 30 weeks.

The test system of series [3] is isolated perfused porcine fore limb. The series is described as follows: isolated perfused porcine fore limb transdermal penetration assay. Type of series: in vitro ADME. As to conditions: microemulsion of example 6; 5 h application time; LC/MS. The protocol: By using the microemulsion as described in example 6 skin penetration studies of FORM 1 of 1,6-Bis [3-(3-carboxymethylphenyl)-4-(2-α-D-mannopyranosyloxy)-phenyl]hexane employing an isolated perfused porcine fore limb transdermal penetration assay using pig porcine is performed according to the methods known to the skilled person. The isolated perfused porcine fore limb is an assay system, which retains intact anatomy and skin, muscle, blood vessel and bone morphology. The organ is kept vitalized by perfusion with a blood-based perfusion medium for up to 6 h. This system allows monitoring of transdermal, resorption, penetration or permeation of pharmaceuticals and cosmetics. 3 application sites are choosen and surrounded by Leukosilk. On each of these areas 10 μl of microemulsion are applied with a pipette and distributed with the pipette tip.
For three additional application sites, the cotton pads of three Hill Top chambers in total, are soaked and saturated with microemulsion and applied to skin. After 5 h application time Hill Top chambers are removed and the unabsorbed microemulsion from the free sites is removed with a dry swab each. 20 Tesa strips are collected from each of the six applications sites. […] Swabs, strips, skin biopsys are analysed for content of FORM 1 of 1,6-Bis [3-(3-carboxymethylphenyl)-4-(2-α-D-mannopyranosyloxy)-phenyl]hexane with LC/MS. […]

Take `O=C(O)Cc1cccc(-c2cc(CCCCCCc3ccc(O[C@H]4O[C@H](CO)[C@@H](O)[C@H](O)[C@@H]4O)c(-c4cccc(CC(=O)O)c4)c3)ccc2O[C@H]2O[C@H](CO)[C@@H](O)[C@H](O)[C@@H]2O)c1` [FORM 1 of compound of formula (I), 1,6-Bis [3-(3-carboxymethylphenyl)-4-(2-α-D-mannopyranosyloxy)-phenyl]hexane]: in series [1], the “significantly reduced skin elasticity (Cutometer) as compared to normal animals” value is “This was not the case”. Moreover, the “applied amount that penetrates into skin (on average)” value in the series on porcine skin turned out to be 4%. For the same compound, in series [2], the “matrix-metallo-proteinase-1 (MMP-1)” value is recorded as “This is not the case”, the “matrix-metallo-proteinase-9 (MMP-9)” value is listed as “This is not the case” and the “strong infiltration of neutrophils” value is “This is not the case”. Besides, in the series with wrinkles of crow's feet, the depth of wrinkles result is “significantly reduces”, the length of wrinkles result is “significantly reduces” and the number of wrinkles entry is listed as “significantly reduces”. Further, in the series on photoageing, the degraded dermal collagen result is “protected significantly”, the “deposition of glycosamisnoglycans in the lower dermis” value is “protected significantly”, the “dermal mast cell number” value is “protected significantly” and the epidermal hyperplasia result was “protected significantly”. Also, the focal elastotic deposits result with photoageing is on record as “protected significantly”. The “applied amount that penetrates into skin (on average)” value in series [3] is reported as 5%.
